Values quoted from earlier work in PubChem BioAssay AID1259409 (Chemical Carcinogenesis Research Information System (CCRIS), 2018).

System: rodent chemically induced tumor inhibition, incidence and multiplicity
Test: CCRIS tumor inhibitor studies
Conditions: Dose [Inhibitor]: 0, Route [Inhibitor]: ORAL, Species: RAT, Strain/Sex: F344/MALE

Structure (SMILES): COc1cc(/C=C/C(=O)O[C@H]2CC[C@]34C[C@]35CC[C@]3(C)[C@@H]([C@H](C)CCC=C(C)C)CC[C@@]3(C)[C@@H]5CC[C@H]4C2(C)C)ccc1O
- tumour outcome (control, treated, inhibition, significance) (Carcinogen: 2,2'-DIHYDROXY-DI-N-PROPYLNITROSAMINE, 53609-64-6, N-ETHYL-N-HYDROXYETHYLNITROSAMINE, 13147-25-6, 3,2'-DIMETHYL-4-AMINO-, Carcinogen: 2,2'-DIHYDROXY-DI-N-PROPYLNITROSAMINE, 53609-64-6, N-ETHYL-N-HYDROXYETHYLNITROSAMINE, 13147-25-6, 3,2'-DIMETHYL-4-AMINO-, 1% IN DIET FOR 32 WK BEGINNING 1 WK POST CARCINOGEN TREATMENT (STUDY DURATION: 36 WK), Target Tissue: Type of Lesion: LUNG: ADENOMA, Dose [Carcinogen]: 1000 MG/KG BW DHPN TWICE 1500 MG/KG BW EHEN TWICE, 75 MG/KG BW 3 TIMES ADMINISTERED OVER FIRST 3 WK, Promoter: NONE USED): 7/14 (50%), 11/13 (85%), -70%, not significant
- tumour outcome (control, treated, inhibition, significance) (Carcinogen: 2,2'-DIHYDROXY-DI-N-PROPYLNITROSAMINE, 53609-64-6, N-ETHYL-N-HYDROXYETHYLNITROSAMINE, 13147-25-6, 3,2'-DIMETHYL-4-AMINO-, Carcinogen: 2,2'-DIHYDROXY-DI-N-PROPYLNITROSAMINE, 53609-64-6, N-ETHYL-N-HYDROXYETHYLNITROSAMINE, 13147-25-6, 3,2'-DIMETHYL-4-AMINO-, 1% IN DIET FOR 32 WK BEGINNING 1 WK POST CARCINOGEN TREATMENT (STUDY DURATION: 36 WK), Target Tissue: Type of Lesion: THYROID GLAND: ADENOMA, Dose [Carcinogen]: 1000 MG/KG BW DHPN TWICE, 1500 MG/KG BW EHEN TWICE 75 MG/KG BW 3 TIMES ADMINISTERED OVER FIRST 3 WK, Promoter: NONE USED): 3/14 (21%), 2/13 (15%), 29%, not significant
- tumour outcome (control, treated, inhibition, significance) (Carcinogen: 2,2'-DIHYDROXY-DI-N-PROPYLNITROSAMINE, 53609-64-6, N-ETHYL-N-HYDROXYETHYLNITROSAMINE, 13147-25-6, 3,2'-DIMETHYL-4-AMINO-, Carcinogen: 2,2'-DIHYDROXY-DI-N-PROPYLNITROSAMINE, 53609-64-6, N-ETHYL-N-HYDROXYETHYLNITROSAMINE, 13147-25-6, 3,2'-DIMETHYL-4-AMINO-, 1% IN DIET FOR 32 WK BEGINNING 1 WK POST CARCINOGEN TREATMENT (STUDY DURATION: 36 WK), Target Tissue: Type of Lesion: THYROID GLAND: CARCINOMA, Dose [Carcinogen]: 1000 MG/KG BW DHPN TWICE, 1500 MG/KG BW EHEN TWICE, 75 MG/KG BW 3 TIMES ADMINISTERED OVER FIRST 3 WK, Promoter: NONE USED): 3/14 (21%), 1/13 (8%), 62%, not significant
- tumour outcome (control, treated, inhibition, significance) (Carcinogen: 2,2'-DIHYDROXY-DI-N-PROPYLNITROSAMINE, 53609-64-6, N-ETHYL-N-HYDROXYETHYLNITROSAMINE, 13147-25-6, 3,2'-DIMETHYL-4-AMINO-, Carcinogen: 2,2'-DIHYDROXY-DI-N-PROPYLNITROSAMINE, 53609-64-6, N-ETHYL-N-HYDROXYETHYLNITROSAMINE, 13147-25-6, 3,2'-DIMETHYL-4-AMINO-, 1% IN DIET FOR 32 WK BEGINNING 1 WK POST CARCINOGEN TREATMENT (STUDY DURATION: 36 WK), Target Tissue: Type of Lesion: URINARY BLADDER: CARCINOMA, Dose [Carcinogen]: 1000 MG/KG BW DHPN TWICE, 1500 MG/KG BW EHEN TWICE, 75 MG/KG BW 3 TIMES ADMINISTERED OVER FIRST 3 WK, Promoter: NONE USED): 1/14 (7%), 2/13 (15%), -114%, not significant
- outcome (Carcinogen: 2,2'-DIHYDROXY-DI-N-PROPYLNITROSAMINE, 53609-64-6, N-ETHYL-N-HYDROXYETHYLNITROSAMINE, 13147-25-6, 3,2'-DIMETHYL-4-AMINO-, Carcinogen: 2,2'-DIHYDROXY-DI-N-PROPYLNITROSAMINE, 53609-64-6, N-ETHYL-N-HYDROXYETHYLNITROSAMINE, 13147-25-6, 3,2'-DIMETHYL-4-AMINO-, 1% IN DIET FOR 32 WK BEGINNING 1 WK POST CARCINOGEN TREATMENT (STUDY DURATION: 36 WK), Target Tissue: Type of Lesion: URINARY BLADDER: PAPILLOMA, Dose [Carcinogen]: 1000 MG/KG BW DHPN TWICE, 1500 MG/KG BW EHEN TWICE, 75 MG/KG BW 3 TIMES ADMINISTERED OVER FIRST 3 WK, Promoter: NONE USED): 0/14 (0%), 3/13 (23%), -100%, not significant
- tumour outcome (control, treated, inhibition, significance) (Carcinogen: 2,2'-DIHYDROXY-DI-N-PROPYLNITROSAMINE, 53609-64-6, N-ETHYL-N-HYDROXYETHYLNITROSAMINE, 13147-25-6, 3,2'-DIMETHYL-4-AMINO-, Carcinogen: 2,2'-DIHYDROXY-DI-N-PROPYLNITROSAMINE, 53609-64-6, N-ETHYL-N-HYDROXYETHYLNITROSAMINE, 13147-25-6, 3,2'-DIMETHYL-4-AMINO-, 1% IN THE DIET FOR 32 WK BEGINNING 1 WK POST CARCINOGEN TREATMENT (STUDY DURATION: 36 WK), Target Tissue: Type of Lesion: LARGE INTESTINE: ADENOMA, Dose [Carcinogen]: 1000 MG/KG BW DHPN TWICE, 1500 MG/KG BW EHEN TWICE, 75 MG/KG BW 3 TIMES ADMINISTERED OVER FIRST 3 WK, Promoter: NONE USED): 7/14 (50%), 5/13 (38%), 24%, not significant
- tumour outcome (control, treated, inhibition, significance) (Carcinogen: 2,2'-HYDROXY-DI-N-PROPYLNITROSAMINE, 53609-64-6, N-ETHYL-N-HYDROXYETHYL- NITROSAMINE, 13147-25-6, 3,2'-DIMETHYL-4-AM, Carcinogen: 2,2'-HYDROXY-DI-N-PROPYLNITROSAMINE, 53609-64-6, N-ETHYL-N-HYDROXYETHYL- NITROSAMINE, 13147-25-6, 3,2'-DIMETHYL-4-AM, 1% IN DIET BEGINNING 1 WK POST LAST CARCINOGEN DOSE AND CONTINUING FOR 32 WK (STUDY DURATION: 36 WK), Target Tissue: Type of Lesion: URINARY BLADDER: CARCINOMA, Dose [Carcinogen]: 1000 MG/KG IP DHPN 2X, 1500 MG/KG GAV EHEN 2X AND 75 MG/KG SC DMAB 3X GIVEN OVER THE INITIAL 3 WK PERIOD AT 3-4 D INTERV, Promoter: NONE USED): 1/14 (7%), 2/13 (15%), -114%, not calculated
- tumour outcome (control, treated, inhibition, significance) (Carcinogen: 3,2'-DIMETHYL-4-AMINOBIPHENYL, 13394-86-0, 2% IN BASAL DIET BEGINNING POST CARCINOGEN TREATMENT AND CONTINUING FOR 40 WK (STUDY DURATION: 60 WK), Target Tissue: Type of Lesion: PANCREAS: ACINAR CELL NODULE, Dose [Carcinogen]: 50 MG/KG 1/2 WK FOR 20 WK TO RATS MAINTAINED ON ETHINYL ESTRADIOL CONTAINING DIET (0.75 PPM) FOR 1 WK CYCLED WITH ETHINY, Promoter: ETHINYL ESTRADIOL, 57-63-6): 4/10 (40%), 5/13 (38%), 5%, not significant
- tumour outcome (control, treated, inhibition, significance) (Carcinogen: 3,2'-DIMETHYL-4-AMINOBIPHENYL, 13394-86-0, 2% IN BASAL DIET BEGINNING POST CARCINOGEN TREATMENT AND CONTINUING FOR 40 WK (STUDY DURATION: 60 WK), Target Tissue: Type of Lesion: PROSTATE: CARCINOMA, Dose [Carcinogen]: 50 MG/KG 1/2 WK FOR 20 WK TO RATS MAINTAINED ON ETHINYL ESTRADIOL CONTAINING DIET (0.75 PPM) FOR 1 WK CYCLED WITH ETHINY, Promoter: ETHINYL ESTRADIOL, 57-63-6): 5/10 (50%), 5/13 (38%), 24%, not significant
